From the OPERA property sets (Mansouri et al. 2018)
Converted amounts (≈) assume the structure as drawn.

Row | Structure (SMILES) | solubility (25 °C) | solubility (20 °C) | also measured
1 | COc1cc(Br)c2c(c1OC)C(=O)OC2 | 0.117 mM (≈ 32 µg/mL) | – | –
2 | CC(=O)Nc1ccc(Br)cc1C | – | 17.5 mM (≈ 4000 µg/mL) | –
3 | Cc1csc(=S)n1CC(=O)O | – | 10.9 mM (≈ 2060 µg/mL) | –
4 | CC(=O)Nc1ccc(F)cc1C | – | 43.7 mM (≈ 7310 µg/mL) | –
5 | CC(C)CCCCCO | 4.97 mM (≈ 647 µg/mL) | – | –
6 | CCCCP(=O)(CCCC)OCC | 63 mM (≈ 13000 µg/mL) | – | –
7 | NC(=O)NC(=O)C=CC(=O)O | – | 12 mM (≈ 1900 µg/mL) | –
8 | N#CI | 233 mM (≈ 35600 µg/mL) | – | –
9 | O=c1cc[nH]cn1 | – | 3850 mM (≈ 370000 µg/mL) | –
10 | O=C(O)c1cc(Br)co1 | – | 65.4 mM (≈ 12500 µg/mL) | –
11 | CCC(O)CCC(C)C (stereo unspecified) | 11.8 mM (≈ 1540 µg/mL) | – | –
12 | COC(=O)c1ccc(O)c(Br)c1 | – | – | solubility (30 °C): 0.684 mM (≈ 158 µg/mL)
13 | CCC(O)C(Cl)(Cl)Cl (stereo unspecified) | – | 113 mM (≈ 20000 µg/mL) | –
14 | Cc1cnc(NS(=O)(=O)c2ccc(N)cc2)nc1C | – | – | solubility (29 °C): 0.719 mM (≈ 200 µg/mL)
15 | CCOC(=O)CO[N+](=O)[O-] | – | – | solubility (30 °C): 19.4 mM (≈ 2900 µg/mL)
16 | Cc1nc2cncnc2n(C)c1=O | – | 32.4 mM (≈ 5710 µg/mL) | –
17 | O=CCCCCCCCC(=O)O | – | 110 mM (≈ 19000 µg/mL) | –
18 | O=C(c1ccccc1)N(O)c1cccc2ccccc12 | – | – | solubility: 0.494 mM (≈ 130 µg/mL)
19 | C=CS(=O)(=O)Nc1ccccc1 | – | 31.7 mM (≈ 5800 µg/mL) | –
20 | Cc1nc2c(c(=O)n(C)c(=O)n2C)n1C | 35.5 mM (≈ 7400 µg/mL) | – | –
21 | CC(=O)N[C@@H](Cc1c[nH]c2ccccc12)C(=O)O (racemic) | – | – | solubility (21 °C): 4.87 mM (≈ 1200 µg/mL)
22 | C[C@@H](N)[C@@H](O)c1ccccc1 | 132 mM (≈ 20000 µg/mL) | – | –
23 | O=NC1=C(NO)CCC1 | – | – | solubility (24 °C): 10.1 mM (≈ 1300 µg/mL)
24 | O=C(O)c1c(Cl)ccc2ccccc12 | – | 4.84 mM (≈ 1000 µg/mL) | –

Row | Structure (SMILES) | solubility (25 °C) | solubility (20 °C) | also measured
25 | O=C(O)c1cccc(C(=O)O)c1[N+](=O)[O-] | 10.2 mM (≈ 2160 µg/mL) | – | –
26 | CC(C)C[C@H](N)C(=O)N[C@H](CCC(N)=O)C(=O)O | 27 mM (≈ 7000 µg/mL) | – | –
27 | CCCCCCC(C(=O)O)C(=O)O | 22 mM (≈ 4150 µg/mL) | – | –
28 | CCCCCOC(=O)C(C)O (stereo unspecified) | 62.4 mM (≈ 10000 µg/mL) | – | –
29 | CC(C)(O)CCl | – | 1450 mM (≈ 157000 µg/mL) | –
30 | O=C(O)CSSSSCC(=O)O | – | – | solubility: 35.3 mM (≈ 8700 µg/mL)
31 | CCc1cccc(C)n1 | – | – | solubility (30 °C): 150 mM (≈ 18200 µg/mL)
32 | O=C(O)CCCC(C(=O)O)(c1ccccc1)c1ccccc1 | – | 0.67 mM (≈ 200 µg/mL) | –
33 | O=C(O)c1ccc(Br)c([N+](=O)[O-])c1 | 1.08 mM (≈ 265 µg/mL) | – | –
34 | Cn1c(=O)c2nccnc2n(C)c1=O | – | 34.7 mM (≈ 6670 µg/mL) | –
35 | CCCOC(=O)c1c(C(=O)O)cccc1[N+](=O)[O-] | – | 4.5 mM (≈ 1140 µg/mL) | –
36 | CCN(CC)CCSCCN(CC)CC | – | – | solubility: 4.3 mM (≈ 1000 µg/mL)
37 | CCSS(=O)(=O)CC | – | – | solubility: 77.8 mM (≈ 12000 µg/mL)
38 | COCOC(=O)c1ccccc1O | – | – | solubility (22 °C): 5.01 mM (≈ 913 µg/mL)
39 | O=C1CCCCCN1C(=O)c1ccccc1 | – | 6.81 mM (≈ 1480 µg/mL) | –
40 | NNC(=O)c1nccs1 | – | – | solubility: 210 mM (≈ 30000 µg/mL)
41 | C[C@H](O)C(F)(F)F | 2040 mM (≈ 233000 µg/mL) | – | –
42 | NS(=O)(=O)c1cccc(S(N)(=O)=O)c1 | 6.77 mM (≈ 1600 µg/mL) | – | –
43 | Cc1ccc(S(=O)(=O)Oc2ccccc2C)cc1 | 0.114 mM (≈ 30 µg/mL) | – | –
44 | Oc1ccc(C2CCCCC2)c(O)c1 | 2.65 mM (≈ 510 µg/mL) | – | –
45 | CC1(C)OC(=O)c2ccccc21 | 13.5 mM (≈ 2200 µg/mL) | – | –
46 | O=C(O)C(I)=C(Br)I | – | 51.4 mM (≈ 20700 µg/mL) | –
47 | CCCCOP(=O)(CCCC)CCCC | 19.2 mM (≈ 4500 µg/mL) | – | –
48 | O=C(Nc1ccccc1)C(Cl)Cl | – | 0.441 mM (≈ 90 µg/mL) | –

Row | Structure (SMILES) | solubility (25 °C) | solubility (20 °C) | also measured
49 | CCCCOC(=O)c1cccnc1 | 14.6 mM (≈ 2610 µg/mL) | – | –
50 | O=C1Cc2c(ccc3ccccc23)O1 | – | – | solubility: 1.96 mM (≈ 361 µg/mL)
51 | CCc1c[nH]c(=O)[nH]c1=O | 11.4 mM (≈ 1600 µg/mL) | – | –
52 | O=C1CC(c2ccccc2)CC(=O)C1[N+](=O)[O-] (stereo unspecified) | – | 21.4 mM (≈ 5000 µg/mL) | –
53 | CCS(=O)(=O)CI | – | – | solubility: 107 mM (≈ 25000 µg/mL)
54 | NC(=O)NCCC(=O)O | 158 mM (≈ 20900 µg/mL) | – | –
55 | CC12CCC(CC1=O)C(C)(C)O2 (stereo unspecified) | – | – | solubility: 119 mM (≈ 20000 µg/mL)
56 | CCC(CC)(CC(=O)O)C(=O)O | 160 mM (≈ 27900 µg/mL) | – | –
57 | CCCc1nnc(NS(=O)(=O)c2ccc(N)cc2)s1 | – | 0.493 mM (≈ 147 µg/mL) | –
58 | CCCOC(=O)CCOC | 219 mM (≈ 32000 µg/mL) | – | –
59 | CCCCCCCCCC(C(=O)O)C(=O)O | 0.499 mM (≈ 115 µg/mL) | – | –
60 | CCC(C)[C@@H](NC(C)=O)C(=O)O (mixture of isomers) | 177 mM | – | –
61 | O=C(O)CCCCCCCCCCO | – | 1.98 mM (≈ 400 µg/mL) | –
62 | NC(N)=NCCS(=O)(=O)O | – | – | solubility (21 °C): 233 mM (≈ 39000 µg/mL)
63 | CCCCCOC(=O)c1ccc(O)cc1 | – | – | solubility (30 °C): 0.154 mM (≈ 32 µg/mL)
64 | Nc1cc(S(=O)(=O)O)ccc1C(=O)O | 48.3 mM (≈ 10500 µg/mL) | – | –
65 | O=C(O)c1ccccc1CO | – | 28.1 mM (≈ 4280 µg/mL) | –
66 | COC1CC1 | 763 mM (≈ 55000 µg/mL) | – | –
67 | COc1ccc(C(=O)CCC(=O)O)cc1 | 86.5 mM (≈ 18000 µg/mL) | – | –
68 | CC1NC(C)SC(C)S1 (stereo unspecified) | – | 42.9 mM (≈ 7000 µg/mL) | –
69 | CO[C@H](C)[C@H](N)C(=O)O (racemic) | 3100 mM (≈ 413000 µg/mL) | – | –
70 | CC=CCC1(C)C(=O)NC(=O)N(C)C1=O (stereo unspecified) | – | 28.5 mM (≈ 6000 µg/mL) | –
71 | CC1CCCC(=NO)C1=NO (stereo unspecified) | 25.6 mM (≈ 4000 µg/mL) | – | –
72 | O=C(O)/C=C/CBr | – | – | solubility: 182 mM (≈ 30000 µg/mL)

Row | Structure (SMILES) | solubility (25 °C) | solubility (20 °C) | also measured
73 | CC(=O)N[C@@H](CC(C)C)C(=O)O | 46.8 mM (≈ 8100 µg/mL) | – | –
74 | O=C1CCCCCCCCCN1 | – | – | solubility (22 °C): 13 mM (≈ 2200 µg/mL)
75 | Cn1cnc2nc(Cl)nc(NN)c21 | – | – | solubility: 72 mM (≈ 14300 µg/mL)
76 | CCCOCC(O)COCCC | – | – | solubility: 454 mM (≈ 80000 µg/mL)
77 | CC(C)C(=O)Oc1ccc([N+](=O)[O-])cc1 | – | – | solubility (23 °C): 0.11 mM (≈ 23 µg/mL)
78 | O=COCc1ccco1 | 104 mM (≈ 13100 µg/mL) | – | –
79 | CCC/C(=C\C(=O)O)C(=O)O | 70.2 mM (≈ 11100 µg/mL) | – | –
80 | CCC1OC(=O)c2ccccc21 (stereo unspecified) | 17.9 mM (≈ 2900 µg/mL) | – | –
81 | CCCCN(C(N)=O)c1ccccc1 | 50.5 mM (≈ 9700 µg/mL) | – | –
82 | CCCCCCCCNC(=O)c1cccnc1 | 0.982 mM (≈ 230 µg/mL) | – | –
83 | CCCOc1ccc(NC(C)=O)cc1 | – | – | solubility (30 °C): 0.88 mM (≈ 170 µg/mL)
84 | Cc1cccc(I)c1O | 14.5 mM (≈ 3400 µg/mL) | – | –
85 | O=C(O)CC1NC(=O)NC1=O (stereo unspecified) | 70.5 mM (≈ 11100 µg/mL) | – | –
86 | CCC1(CC(C)=O)C(=O)NC(=O)NC1=O | – | – | solubility: 171 mM (≈ 36400 µg/mL)
87 | COc1c(C(=O)O)oc2ccccc12 | – | 1.3 mM (≈ 250 µg/mL) | –
88 | NC[C@H](O)C(=O)O | – | 148 mM (≈ 15500 µg/mL) | –
89 | Cc1ccc(N)cc1C | – | – | solubility (22 °C): 31.4 mM (≈ 3800 µg/mL)
90 | CCCCCCCOC(=O)c1ccc(O)cc1 | – | – | solubility (30 °C): 0.0846 mM (≈ 20 µg/mL)
91 | Sc1nnc(S)s1 | – | 176 mM (≈ 26400 µg/mL) | –
92 | CC(C)[C@@H]1NC(=O)CNC1=O | – | – | solubility: 128 mM (≈ 20000 µg/mL)
93 | N#Cc1c(O)cc(Cl)[nH]c1=O | – | 58.6 mM (≈ 10000 µg/mL) | –
94 | COC(=O)c1cc([N+](=O)[O-])ccc1C(=O)O | – | 19 mM (≈ 4280 µg/mL) | –
95 | CN(C)c1nc2c[nH]cnc-2n1 | – | 40.9 mM (≈ 6670 µg/mL) | –
96 | CC(CCC(=O)O)NC(=O)c1ccccc1 (stereo unspecified) | 20.3 mM (≈ 4500 µg/mL) | – | –

Row | Structure (SMILES) | solubility (25 °C) | solubility (20 °C) | also measured
97 | OCc1ccc(O)cc1 | – | 54 mM (≈ 6700 µg/mL) | –
98 | CCOc1ccc(NC(=O)CO)cc1 | – | – | solubility: 7.84 mM (≈ 1530 µg/mL)
99 | CC1(CCN2CCCCC2)NC(=O)NC1=O (stereo unspecified) | – | 151 mM (≈ 34000 µg/mL) | –
100 | CCCCOC(=O)CCC(=O)OCCCC | – | – | solubility: 0.999 mM (≈ 230 µg/mL)
101 | CCOC(OCC)C(Cl)(Cl)Cl | – | – | solubility: 22.6 mM (≈ 5000 µg/mL)
102 | O=C1OCc2ccc(Br)cc21 | 2.25 mM (≈ 480 µg/mL) | – | –
103 | CC(=O)c1cc(O)c(O)c(O)c1 | 33.8 mM (≈ 5680 µg/mL) | – | –
104 | N#CCCN(CCC#N)[C@@H](CCC(=O)O)C(=O)O | – | – | solubility (26 °C): 592 mM (≈ 150000 µg/mL)
105 | COC(/C=C/C(OC)OC)OC | – | – | solubility: 1140 mM (≈ 200000 µg/mL)
106 | Nc1ncnc2c1ncn2[C@@H]1O[C@H](COP(=O)(O)O)[C@@H](O)[C@H]1O | – | 28.8 mM (≈ 10000 µg/mL) | –
107 | CCCC(=O)NCCNC(=O)CCC | 239 mM (≈ 47800 µg/mL) | – | –
108 | COc1nsc(N)n1 | – | 57.2 mM (≈ 7500 µg/mL) | –
109 | CCCCOCCC(=O)OC | 51.2 mM (≈ 8200 µg/mL) | – | –
110 | ON=C1CCCCC1 | 159 mM (≈ 18000 µg/mL) | – | –
111 | CCCC(O)(CCC)C(O)c1ccccc1 (stereo unspecified) | – | 2.25 mM (≈ 500 µg/mL) | –
112 | O=P(Oc1ccccc1)(Oc1ccccc1)N1CCOCC1 | 7.2 mM (≈ 2300 µg/mL) | – | –
113 | CC(=O)Nc1ccc(C)cc1 | 8.04 mM (≈ 1200 µg/mL) | – | –
114 | CCN(CC)C(=O)N(CC)CC | – | – | solubility: 232 mM (≈ 40000 µg/mL)
115 | CCCCCOC(=O)CCOCC | 6.37 mM (≈ 1200 µg/mL) | – | –
116 | COc1ccc(CO)cc1 | – | 14.5 mM (≈ 2000 µg/mL) | –
